Data taken from the SangsterLogP compilation.

Row | logP | SMILES
1 | 1.59 | NCCCCCOc1cccc2ccccc12
2 | 3.6 | Cc1cc2n(c1C(=O)c1ccc(Cl)cc1)CCC2C(=O)O (stereo not given)
3 | 2.17 | COC(=O)NC1=NCC(c2ccc(Cl)cc2)N1C (stereo not given)
4 | 0.28 | COC(=O)NC1=NCC(c2ccc(CO)cc2)N1C (stereo not given)
5 | 2.05 | CN(C)CCCCOc1cccc2ccccc12
6 | 1.85 | COC(=O)NC1=NCC(c2ccccc2C)N1C (stereo not given)
7 | 1.49 | COC(=O)NC1=NCC(c2ccc(F)cc2)N1 (stereo not given)
8 | 1.57 | COC(=O)NC1=NCC(c2ccccc2)N1C (stereo not given)
9 | 1.9 | CCOC(=O)NC1=NCC(c2ccccc2)N1C (stereo not given)
10 | 1.85 | COC(=O)NC1=NCC(c2cccc(C)c2)N1C (stereo not given)
11 | 2.06 | NCCCCCCOc1cccc2ccccc12
12 | 1.25 | NCCCCOc1cccc2ccccc12
13 | 1.84 | CCOC(=O)NC1=NCC(c2cccc(F)c2)N1C (stereo not given)
14 | 1.04 | NCCCOc1cccc2ccccc12
15 | 1.85 | COC(=O)NC1=NCC(c2ccccc2Br)N1 (stereo not given)
16 | 2.91 | COc1ccc(C(=O)c2c(C)cc3n2CCC3C(=O)O)cc1 (stereo not given)
17 | 2.54 | COC(=O)NC1=NCC(c2ccc3ccccc3c2)N1 (stereo not given)

The next lines start with the compound.

Row | SMILES | logP
18 | CCc1cc2n(c1C(=O)c1ccccc1)CCC2C(=O)O (stereo not given) | 3.31
19 | COC(=O)NC1=NCC(c2ccccc2)N1 (stereo not given) | 1.55
20 | Cc1ccc(C(=O)c2c(C)cc3n2CCC3C(=O)O)cc1 (stereo not given) | 3.33
21 | COC(=O)NC1=NCC(c2ccccc2SC)N1C (stereo not given) | 2.08
22 | COC(=O)NC1=NCC(c2ccc(C=O)cc2)N1C (stereo not given) | 0.74
23 | CCc1cc2n(c1C(=O)c1ccc(F)cc1)CCC2C(=O)O (stereo not given) | 3.63
24 | NCCCCCCCCOc1cccc2ccccc12 | 3.14
25 | CCOC(=O)NC1=NCC(c2cccc(C)c2C)N1C (stereo not given) | 2.57
26 | COC(=O)NC1=NCC(c2cccc(F)c2)N1 (stereo not given) | 1.41
27 | NCCOc1cccc2ccccc12 | 1.15
28 | O=c1c2ncn(COCCO)c2nc2[nH]c(-c3ccc4ccccc4c3)cn12 | 2.09
29 | COC(=O)NC1=NCC(c2cccc(Cl)c2)N1C (stereo not given) | 2.1
30 | CCOC(=O)NC1=NCC(c2ccc(F)cc2)N1C (stereo not given) | 1.9
31 | CN(C)CCOc1cccc2ccccc12 | 2.12
32 | Cc1cc2n(c1C(=O)c1ccccc1)CCC2C(=O)O (stereo not given) | 2.85
33 | COC(=O)NC1=NCC(c2cccc(OC)c2)N1C (stereo not given) | 1.39
34 | COC(=O)NC1=NCC(c2ccccc2F)N1C (stereo not given) | 1.53
35 | CN(C)CCCOc1cccc2ccccc12 | 1.99
36 | CCOC(=O)NC1=NCC(c2cccc(Cl)c2)N1C (stereo not given) | 2.45
37 | COC(=O)NC1=NCC(c2ccc(C(F)(F)F)cc2)N1 (stereo not given) | 2.25
38 | COC(=O)NC1=NCC(c2ccc(C(C)C)cc2)N1 (stereo not given) | 2.6
39 | COC(=O)NC1=NCC(c2ccc3c(c2)OCO3)N1 (stereo not given) | 1.21
40 | CCOC(=O)NC1=NCC(c2ccccc2Cl)N1C (stereo not given) | 2.4
41 | COC(=O)NC1=NCC(c2ccccc2Cl)N1C (stereo not given) | 2.08
42 | COC(=O)NC1=NCC(c2cc(Br)ccc2Br)N1C (stereo not given) | 2.77
43 | COC(=O)NC1=NCC(c2ccc(C(=O)OC)cc2)N1C (stereo not given) | 1.38
44 | CCOC(=O)NC1=NCC(c2ccc(CO)cc2)N1C (stereo not given) | 0.84
45 | COC(=O)NC1=NCC(c2cccc(Cl)c2)N1 (stereo not given) | 1.9
